Source: US7414072B2, “Aryl 5-thio-β-d-glucopyranoside derivatives and therapeutic agents for diabetes containing the same” (Taisho Pharmaceutical Co., Ltd., priority 2002, dated 2008)
“And” between values parts separate entries of the source, which are not always exact repeats. Equal values may be shown once.

Row | melting point | SMILES
1 | 184 to 186 °C | Cc1ccc(Cc2ccccc2O[C@@H]2S[C@H](CO)[C@@H](O)[C@H](O)[C@H]2O)cc1 [Compound 3, 2′-(4′-methylbenzyl)phenyl 5-thio-β-D-glucopyranoside]
2 | 166 to 167.5 °C | COc1ccc(Cc2ccccc2O[C@@H]2S[C@H](CO)[C@@H](O)[C@H](O)[C@H]2O)cc1 [Compound 4, 2′-(4′-methoxybenzyl)phenyl 5-thio-β-D-glucopyranoside]
3 | 182 to 183.5 °C | CCOc1ccc(Cc2ccccc2O[C@@H]2S[C@H](CO)[C@@H](O)[C@H](O)[C@H]2O)cc1 [Compound 5, 2′-(4′-ethoxybenzyl)phenyl 5-thio-β-D-glucopyranoside]
4 | 163 to 165.5 °C | CCc1ccc(Cc2cc(F)ccc2O[C@@H]2S[C@H](CO)[C@@H](O)[C@H](O)[C@H]2O)cc1 [Compound 8, 2′-(4′-ethylbenzyl)-4′-fluorophenyl 5-thio-β-D-glucopyranoside]
5 | 157 to 158.5 °C | OC[C@H]1S[C@@H](Oc2ccccc2Cc2ccc(F)cc2)[C@H](O)[C@@H](O)[C@@H]1O [Compound 9, 2′-(4′-fluorobenzyl)phenyl 5-thio-β-D-glucopyranoside]
6 | 171 to 174 °C | OC[C@H]1S[C@@H](Oc2ccccc2Cc2ccccc2)[C@H](O)[C@@H](O)[C@@H]1O [Compound 11, 2′-benzylphenyl 5-thio-β-D-glucopyranoside]
7 | 238 to 242.5 °C | CCc1ccc(Cc2c(O)cccc2O[C@@H]2S[C@H](CO)[C@@H](O)[C@H](O)[C@H]2O)cc1 [Compound 14, 2′-(4′-ethylbenzyl)-3′-hydroxyphenyl 5-thio-β-D-glucopyranoside]
8 | 172 to 173.5 °C | CCc1ccc(Cc2ccc(O)cc2O[C@@H]2S[C@H](CO)[C@@H](O)[C@H](O)[C@H]2O)cc1 [Compound 21, 2′-(4′-ethylbenzyl)-5′-hydroxyphenyl 5-thio-β-D-glucopyranoside]
9 | 179 to 180 °C | OC[C@H]1S[C@@H](Oc2ccccc2Cc2ccncc2)[C@H](O)[C@@H](O)[C@@H]1O [Compound 24]
10 | 148 to 150 °C | OC[C@H]1S[C@@H](Oc2ccccc2OCc2ccccc2)[C@H](O)[C@@H](O)[C@@H]1O [Compound 25]
11 | 96 to 105 °C | O=C(Nc1ccccc1)c1cc(Cl)ccc1O[C@@H]1S[C@H](CO)[C@@H](O)[C@H](O)[C@H]1O [Compound 27]
12 | 152 to 153 °C | Cc1ccc(Nc2ccccc2O[C@@H]2S[C@H](CO)[C@@H](O)[C@H](O)[C@H]2O)cc1 [Compound 34, 2′-(p-Toluidino)phenyl 5-thio-β-D-glucopyranoside]
13 | 144 to 151 °C | OC[C@H]1S[C@@H](Nc2ccccc2Cc2ccccc2)[C@H](O)[C@@H](O)[C@@H]1O [Compound 35]
14 | 177 to 180 °C | Cc1ccc(Cc2ccccc2O[C@@H]2S[C@H](CO)[C@@H](O)[C@H](O)[C@H]2O)nc1 [Compound 36]
15 | 197 to 200 °C | Cc1csc(Cc2ccccc2O[C@@H]2S[C@H](CO)[C@@H](O)[C@H](O)[C@H]2O)n1 [Compound 37]
16 | 140 to 142 °C | Cc1ccc(Sc2ccccc2O[C@@H]2S[C@H](CO)[C@@H](O)[C@H](O)[C@H]2O)cc1 [Compound 38]
17 | 208 to 210 °C | OC[C@H]1S[C@@H](Oc2ccccc2Cc2ccc(-n3cccn3)cc2)[C@H](O)[C@@H](O)[C@@H]1O [Compound 43, 2′-(4′-pyrazol-1′-ylbenzyl)phenyl 5-thio-β-D-glucopyranoside]
18 | 170 to 173 °C | OC[C@H]1S[C@@H](Oc2ccc(Cl)cc2Cc2ccccc2F)[C@H](O)[C@@H](O)[C@@H]1O [Compound 44, 4′-chloro-2′-(2′-fluorobenzyl)phenyl 5-thio-β-D-glucopyranoside]
19 | 174 to 176.5 °C | CCSc1ccc(Cc2ccccc2O[C@@H]2S[C@H](CO)[C@@H](O)[C@H](O)[C@H]2O)cc1 [Compound 48, 2′-(4′-ethylthiobenzyl)phenyl 5-thio-β-D-glucopyranoside]
20 | 132 to 134 °C | CCc1ccc(Cc2cccc(O[C@@H]3S[C@H](CO)[C@@H](O)[C@H](O)[C@H]3O)c2)cc1 [Compound 49]
21 | 175 to 177.5 °C | CCn1cc(Cc2ccccc2O[C@@H]2S[C@H](CO)[C@@H](O)[C@H](O)[C@H]2O)cn1 [Compound 54]
22 | 148.5 to 149.5 °C | Cn1cc(Cc2ccccc2O[C@@H]2S[C@H](CO)[C@@H](O)[C@H](O)[C@H]2O)cn1 [Compound 55]
23 | 184 to 186.5 °C | OCc1ccc(Cc2ccccc2O[C@@H]2S[C@H](CO)[C@@H](O)[C@H](O)[C@H]2O)cc1 [Compound 56, 2′-(4′-hydroxymethylbenzyl)phenyl 5-thio-β-D-glucopyranoside]
24 | 144 to 145 °C | CCc1cccc(Cc2ccccc2O[C@@H]2S[C@H](CO)[C@@H](O)[C@H](O)[C@H]2O)c1 [Compound 57]

Further lines, the compound ahead of its results:

Row | SMILES | melting point
25 | CCc1ccc(Cc2ccccc2O[C@@H]2S[C@H](CO)[C@@H](O)[C@H](O)[C@H]2O)cc1 [Compound 1, 2′-(4′-ethylbenzyl)phenyl 5-thio-β-D-glucopyranoside] | 154 to 160 °C and 154 to 169 °C and 156.5 to 157.5 °C
26 | CCc1ccc(Cc2cc(Cl)ccc2O[C@@H]2S[C@H](CO)[C@@H](O)[C@H](O)[C@H]2O)cc1 [Compound 2, 4′-chloro-2′-(4′-ethylbenzyl)phenyl 5-thio-β-D-glucopyranoside] | 173.5 to 177.5 °C
27 | CCc1ccc(Cc2cc(C)ccc2O[C@@H]2S[C@H](CO)[C@@H](O)[C@H](O)[C@H]2O)cc1 [Compound 7, 2′-(4′-ethylbenzyl)-4′-methylphenyl 5-thio-β-D-glucopyranoside] | 154 to 156 °C
28 | CCc1ccc(Cc2cc(Br)ccc2O[C@@H]2S[C@H](CO)[C@@H](O)[C@H](O)[C@H]2O)cc1 [Compound 10, 4′-bromo-2′-(4′-ethylbenzyl)phenyl 5-thio-β-D-glucopyranoside] | 172 to 173.5 °C
29 | CCc1ccc(Cc2cc(CO)ccc2O[C@@H]2S[C@H](CO)[C@@H](O)[C@H](O)[C@H]2O)cc1 [Compound 13, 2′-(4′-ethylbenzyl)-4′-(hydroxymethyl)phenyl 5-thio-β-D-glucopyranoside] | 202.5 to 205 °C
30 | CCc1ccc(Cc2cc(C(=O)OC)ccc2O[C@@H]2S[C@H](CO)[C@@H](O)[C@H](O)[C@H]2O)cc1 [Compound 15, 2′-(4′-ethylbenzyl)-4′-methoxycarbonylphenyl 5-thio-β-D-glucopyranoside] | 196 to 198 °C
31 | CCc1ccc(Cc2cc(C(=O)O)ccc2O[C@@H]2S[C@H](CO)[C@@H](O)[C@H](O)[C@H]2O)cc1 [Compound 16, 4′-carboxy-2′-(4′-ethylbenzyl)phenyl 5-thio-β-D-glucopyranoside] | 219 to 220.5 °C
32 | CCc1ccc(Cc2ccc(OCOC)cc2O[C@@H]2S[C@H](CO)[C@@H](O)[C@H](O)[C@H]2O)cc1 [Compound 20, 2′-(4′-ethylbenzyl)-5′-(methoxymethyloxy)phenyl 5-thio-β-D-glucopyranoside] | 175.5 to 180 °C
33 | CCc1ccc(Cc2ccccc2O[C@@H]2S[C@H](COC(=O)OC)[C@@H](O)[C@H](O)[C@H]2O)cc1 [Compound 23, 2′-(4′-ethylbenzyl)phenyl 6-O-methoxycarbonyl 5-thio-β-D-glucopyranoside] | 102 to 104.5 °C
34 | CCc1ccc(Cc2cc(Cl)cc(Cl)c2O[C@@H]2S[C@H](CO)[C@@H](O)[C@H](O)[C@H]2O)cc1 [Compound 31, 4′,6′-dichloro-2′-(4′-ethylbenzyl)phenyl 5-thio-β-D-glucopyranoside] | 72 to 80 °C
35 | CCc1ccc(Cc2ccc(CO)cc2O[C@@H]2S[C@H](CO)[C@@H](O)[C@H](O)[C@H]2O)cc1 [Compound 39, 2′-(4′-ethylbenzyl)-5′-(hydroxymethyl)phenyl 5-thio-β-D-glucopyranoside] | 206 to 211 °C
36 | COC(=O)c1ccc(Cc2cc(Cl)ccc2O[C@@H]2S[C@H](CO)[C@@H](O)[C@H](O)[C@H]2O)cc1 [Compound 40, 4′-chloro-2′-(4′-methoxycarbonylbenzyl)phenyl 5-thio-β-D-glucopyranoside] | 74 to 76 °C
37 | O=[N+]([O-])c1ccc(Cc2cc(Cl)ccc2O[C@@H]2S[C@H](CO)[C@@H](O)[C@H](O)[C@H]2O)cc1 [Compound 41, 4′-chloro-2′-(4′-nitrobenzyl)phenyl 5-thio-β-D-glucopyranoside] | 180 to 182 °C
38 | Nc1ccc(Cc2cc(Cl)ccc2O[C@@H]2S[C@H](CO)[C@@H](O)[C@H](O)[C@H]2O)cc1 [Compound 42, 2′-(4′-aminobenzyl)-4′-chlorophenyl 5-thio-β-D-glucopyranoside] | 206 to 208 °C
39 | CCCCOc1ccc(Cc2cc(Cl)ccc2O[C@@H]2S[C@H](CO)[C@@H](O)[C@H](O)[C@H]2O)cc1 [Compound 45, 2′-(4′-butoxybenzyl)-4′-chlorophenyl 5-thio-β-D-glucopyranoside] | 166 to 169 °C
40 | CCCCc1ccc(Cc2cc(Cl)ccc2O[C@@H]2S[C@H](CO)[C@@H](O)[C@H](O)[C@H]2O)cc1 [Compound 46, 2′-(4′-butylbenzyl)-4′-chlorophenyl 5-thio-β-D-glucopyranoside] | 165 to 168 °C
41 | CC(=O)Nc1ccc(Cc2cc(Cl)ccc2O[C@@H]2S[C@H](CO)[C@@H](O)[C@H](O)[C@H]2O)cc1 [Compound 47, 2′-(4′-acetylaminobenzyl)-4′-chlorophenyl 5-thio-β-D-glucopyranoside] | 235 to 236.5 °C
42 | CCc1ccc(Cc2ccc(O[C@@H]3S[C@H](CO)[C@@H](O)[C@H](O)[C@H]3O)cc2)cc1 [Compound 50] | 137 to 138.5 °C
43 | CS(=O)(=O)Nc1ccc(Cc2cc(Cl)ccc2O[C@@H]2S[C@H](CO)[C@@H](O)[C@H](O)[C@H]2O)cc1 [Compound 51, 4′-chloro-2′-(4′-methylsulfonylaminobenzyl)phenyl 5-thio-β-D-glucopyranoside] | 151 to 153 °C
44 | CN(C)c1ccc(Cc2cc(Cl)ccc2O[C@@H]2S[C@H](CO)[C@@H](O)[C@H](O)[C@H]2O)cc1 [Compound 52, 4′-chloro-2′-(4′-N,N-dimethylaminobenzyl)phenyl 5-thio-β-D-glucopyranoside] | 183 to 184 °C
45 | OC[C@H]1S[C@@H](Oc2c(Cc3c(F)cccc3Cl)cc(Cl)cc2Cc2c(F)cccc2Cl)[C@H](O)[C@@H](O)[C@@H]1O [Compound 53] | 112 to 118 °C
